Source: patent US20050004037A1, “Osteogenic growth oligopeptides as stimulants of hematopoiesis” (Yissum Research Development Company of the Hebrew …, priority 2001, published 2005)
Ends that are not written are not given here.

B1: G-CSF: granulocyte colony-stimulating factor, positive reference (protein, UniProt P09919 31-207, looked up)
Granulocyte …: TPLGPASSLPQSFLLKCLEQVRKIQGDGAALQEKLVSECATYKLCHPEELVLLGHSLGIPWAPLSSCPSQALQLAGCLSQLHSGLFLYQGLLQALEGISPELGPTLDTLQLDVADFATTIWQQMEELGMAPALQPTQGAMPAFASAFQRRAGGVLVASHLQSFLEVSYRVLRHLAQP

Assays:
[1] = system: white blood cells, monocytes, immature cells; assay: Total and differential blood cell counts after cyclophosphamide (CFA) chemoablation; format: in vivo, mice; details: CFA-induced aplasia
Protocol: FIGS. 2A-C—OGP(10-14) stimulates blood cell counts in dose and time dependent manner in mice undergoing chemoablation of hematopoietic tissues Male ICR mice weighing 25 gm each were subjected to chemoablation using cyclophosphamide (CFA), 5 mg/mouse, injected intraperitoneally on days 0 and 1, one injection each day. OGP(10-14) was dissolved in “sterile water for injection” and 0.1 ml of the indicated doses or water only (vehicle) was administered subcutaneously in the nape daily from day −7 to day −1 and from day +2 to day +8. Data are mean±SD obtained in 20 animals per condition. *: significant over CFA+vehicle, p<0.05; **: significant over 1 nmol OGP(10-14) group, p<0.05.
In this set of experiments bone marrow ablation was induced by an intraperitoneal injection of cyclophophamide (CFA, SIGMA, 5 mg/mouse in 150 (1 sterile PBS) for two consecutive days (designated “day 0” and “day 1”. This protocol has been demonstarted to induce severe, reversible leucopoena with L. D. <30 [Spangrude, G. J. et al, Science, 241:58 (1988)]. The lowest bone marrow cell counts were recorded six days after the first injection. […]

[2] = Evaluation of OGP(10-14) toxicity after 15 days of subcutaneous administration; format: in vivo, mice; details: 10 nmol/mouse s.c., versus placebo-treated controls
Protocol: Fifty-five mice were evaluated for possible OGP(10-14)-related toxicity after 15 days of subcutaneous administration, at the dose of 10 nmol/mouse, and results were compared to those obtained in 30 placebo-treated controls.

[3] = system: CFU-GM, CFU-GEMM and BFU-E; assay: Ex vivo progenitor cell (colony forming) assays on bone marrow of treated chemoablated mice; format: in vivo; details: bone marrow of CFA-ablated mice, 10 nmol/day s.c.
Protocol: Male ICR mice weighing 25 gm each were subjected to chemoablation using cyclophosphamide (CFA), 5 mg/mouse, injected intraperitoneally on days 0 and 1, one injection each day. OGP(10-14) was dissolved in “sterile water for injection” at 100 nmol/ml concentration and 0.1 ml of this solution or water only (vehicle) was administered subcutaneously in the nape daily for the indicated period(s). Bone marrow was harvested on day 9 and analyzed for colony forming units. Data are meam±SD obtained in 10 animals per condition.
To evaluate different dosing regimens of OGP(10-14), chemoablated mice were subjected to daily treatment with OGP(10-14), as outlined in FIG. 4. The mice were sacrificed on day +15, the femoral bone marrow was flushed and single cell suspensions (prepared as above) were subjected to ex vivo progenitor cell (colony forming) assays. The OGP(10-14) effect on the formation of CFU-GM, CFU-GEMM and BFU-E was compared to that of G-CSF (FIG. 4).
Bone marrow cells were recovered on day +10 after injection of CFA from all groups. Cells were diluted to 2×10^6/ml in Iscove's Modified Dulbecco Medium(IMFM) with 2% FBS and added to methylcellulose medium according to the manufacturer's recommendations (MethoCult, StemCell Technologies Inc., Vancouver, Canada). 2×10^4 cells were plated in each test. Both M3434 (for murine GM-CFU, and GEMM-CFU) and M3334 for (murine BFU-E assay) were used. M3434 was supplemented with recombinant murine interleukine-3 (rmIL-3, 10 ng/ml), recombinant human interleukine-6 (rhIL-6, 10 ng/ml), recombinant murine stem cell factor (rmSCF, 50 ng/ml) and recombinant human erythropoietin (rhEpo, 3 U/ml). […] the only factor included was Epo. Duplicate tests for each mouse were blindly examined after 14 days of incubation according to the protocol procedures.

[4] = OGP(10-14) effect only where treatment began 7 days before chemoablation

| Molecule | toxicity at the employed doses [1] | haematological parameters: number of WBC, RBC, PLT, Hb level [2] | survival, behaviour, body weight gain and gross examination [2] | CFU-GM [3] | BFU-E [3, 4] | CFU-GEMM [3, 4] |
| --- | --- | --- | --- | --- | --- | --- |
| YGFGG [OGP(10-14), Tyr-Gly-Phe-Gly-Gly] | without any valuable toxicity | did not induce any significant modifications | No differences were found |  |  |  |
| B1 |  |  |  | had an effect | effect only on the CFU-GM | effect only on the CFU-GM |
